Data on 18 compounds can be found in patent publication US12048678B2, “Compounds for treating myelin related disorders” (Case Western Reserve University, priority 2018, dated 2024).

For assay [1], the system named is oligodendrocyte progenitor cells (OPCs), OPC-5. The assay can be described thus: Differentiation of OPCs to MBP+ oligodendrocytes (in vitro phenotypic screening, high-content imaging). Format: cell-based, mouse. Conditions: for activation at 0.03 µM / activation at 0.1 µM / activation at 0.3 µM / activation at 1 µM: Mus musculus, Oligodendrocyte progenitor cell, 72 h treatment; for activation at 0.03 µM: read-out: % enhancement of MBP+ oligodendrocyte generation at 0.03 μM concentration; for activation at 0.1 µM: read-out: % enhancement of MBP+ oligodendrocyte generation at 0.1 μM concentration; for activation at 0.3 µM: read-out: % enhancement of MBP+ oligodendrocyte generation at 0.3 μM concentration; for activation at 1 µM: read-out: % enhancement of MBP+ oligodendrocyte generation at 1 μM concentration; for enhancement of oligodendrocyte formation (in words): OPC-5, FIGS. 2a-2c. The method, then:
To rigorously assess effects of small molecule and genetic treatments on OPCs, all treatments were assayed in two batches of epiblast stem cell-derived OPCs, and key results were confirmed using mouse primary OPCs. OPCs were generated from two separate EpiSC lines, EpiSC5 (giving rise to OPC-5 OPCs) and 12901 (giving rise to OPC-1 OPCs). EpiSC-derived OPCs were obtained using in vitro differentiation protocols and culture conditions described previously. To ensure uniformity throughout all in vitro screening experiments, EpiSC-derived OPCs were sorted to purity by fluorescence activated cell sorting at passage five with conjugated CD 140a-APC (eBioscience, 17-1401; 1:80) and NG2-AF488 (Millipore, AB5320A4; 1:100) antibodies. Sorted batches of OPCs were expanded and frozen down in aliquots. OPCs were thawed into growth conditions for one passage before use in further assays. Cultures were regularly tested and shown to be mycoplasma free.
EpiSC-derived OPCs were grown and expanded in poly-ornithine (PO) and laminin-coated flasks with growth medium (DMEM/F12 supplemented with N2-MAX (R&D Systems), B-27 (ThermoFisher), GlutaMax (Gibco), FGF2 ([…], R&D systems, 233-FB-025) and PDGF-AA ([…], R&D systems, 233-AA-050) before harvesting for plating. The cells were seeded onto poly-D-lysine 96-well CellCarrier or CellCarrierUltra plates (PerkinElmer) coated with laminin (Sigma, L2020; 15 μg/ml) using multi-channel pipet. For the experiment, 800,000 cells/mL stock in differentiation medium (DMEM/F12 supplemented with N2-MAX and B-27) was prepared and stored on ice for 2 h. Then, 40,000 cells were seeded per well in differentiation medium and allowed to attach for 30 min before addition of drug. For dose-response testing of all molecules except sterols, a 1000× compound stock in dimethyl sulphoxide (DMSO) was added to assay plates with 0.1 μL solid pin multi-blot replicators (V & P Scientific; VP 409), resulting in a final primary screening concentration of 1×. Cells were incubated under standard conditions (37° C., 5% CO2) for 3 days and fixed with 4% paraformaldehyde (PFA) in phosphate buffered saline (PBS) for 20 min. Fixed plates were washed with PBS (200 μL per well) twice, permeabilized with 0.1% Triton X-100 and blocked with 10% donkey serum (v/v) in PBS for 40 min. Then, cells were labelled with MBP antibodies (Abcam, ab7349; 1:200) for 16 h at 4° C. followed by detection with Alexa Fluor conjugated secondary antibodies (1:500) for 45 min. Nuclei were visualized by DAPI staining (Sigma; 1 μg/ml). During washing steps, PBS was added using a multi-channel pipet and aspiration was performed using Biotek EL406 washer dispenser (Biotek) equipped with a 96-well aspiration manifold.
Plates were imaged on the Operetta High Content Imaging and Analysis system (PerkinElmer) and a set of 6 fields captured from each well resulting in an average of 1200 cells being scored per well. Analysis (PerkinElmer Harmony and Columbus software) began by identifying intact nuclei stained by DAPI; that is, those traced nuclei that were larger than 300 μm2 in surface area. Each traced nucleus region was then expanded by 50% and cross-referenced with the […] (MBP) stain to identify oligodendrocyte nuclei, and from this the percentage of oligodendrocytes was calculated.

The subject of assay [2] is cholesterol biosynthesis in OPCs (CYP51, TM7SF2, EBP). The assay can be described thus: GC/MS-based sterol profiling in OPCs. Format: cell-based, mouse. Conditions: GC-MS. Here is the method: EpiSC-derived OPCs were plated at 0.5 million cells per ml in PDL- and laminin-coated six or twelve well plate with differentiation media. After 24 hours, cells were dissociated with Accutase, rinsed with saline, and cell pellets were frozen. For sterol analyses, cells were lysed in methanol (Sigma-Aldrich) with agitation for 30 minutes and cell debris removed by centrifugation at 10,000 rpm for 15 min. Cholesterol-d7 standard (25,26,26,26,27,27,27-^2H7-cholesterol, Cambridge Isotope Laboratories) was added before drying under nitrogen stream and derivatization with 55 μl of bis(trimethylsilyl)trifluoroacetamide/trimethylchlorosilane to form trimethylsilyl derivatives. Following derivatization at 60° C. for 20 minutes, 1 μl was analyzed by gas chromatography/mass spectrometry using an Agilent 5973 Network Mass Selective Detector equipped with a 6890 gas chromatograph system and a HP-5MS capillary column ([…]). Samples were injected in splitless mode and analyzed using electron impact ionization. Ion fragment peaks were integrated to calculate sterol abundance, and quantitation was relative to cholesterol-d7. The following m/z ion fragments were used to quantitate each metabolite: cholesterol-d7 (465), FF-Mas (482), cholesterol (368), zymostenol (458), zymosterol (456), desmosterol (456, 343), 7-dehydrocholesterol (456, 325), lanosterol (393), lathosterol (458), 14-dehydrozymostenol (456). Calibration curves were generated by injecting varying concentrations of sterol standards and maintaining a fixed amount of cholesterol-D7. The human glioma cell line GBM528 was a gift of Jeremy Rich (Cleveland Clinic). Human cortical spheroids were generated as described previously.

`CCN1CCN(Cc2ccc(-c3ccccc3)cc2)CC1` [Compound 2]: in assay [1], the activation at 0.03 µM was in the range of 20 to 30%, the activation at 0.1 µM lay in the range of 30 to 40%, the activation at 0.3 µM is greater than 40% and the activation at 1 µM was greater than 40%.

As for `c1ccc(-c2ccc(CN3CCCCCC3)cc2)cc1` [Compound 3], in assay [1], the activation at 0.03 µM lay in the range of 20 to 30%, the activation at 0.1 µM is 20 to 30%, the activation at 0.3 µM is 30 to 40% and the activation at 1 µM is greater than 40%.

`CCCCOc1ccc(CN2CCCCC2CC)cc1` (stereo not drawn) [Compound 4]: in assay [1], the activation at 0.03 µM was no more than 20%, the activation at 0.1 µM lay in the range of 20 to 30%, the activation at 0.3 µM is no more than 20% and the activation at 1 µM was 20 to 30%.

Take `Clc1ccc(CN2CCN(Cc3ccccc3)CC2)cc1Cl` [Compound 5]: in assay [1], the activation at 0.03 µM is no more than 20%, the activation at 0.1 µM is 20 to 30%, the activation at 0.3 µM lay within 30 to 40% and the activation at 1 µM fell in the range of 30 to 40%.

For the compound `CN1CCN(Cc2ccc(-c3ccccc3)cc2)CC1` [Compound 6], in assay [1], the activation at 0.03 µM was no more than 20%, the activation at 0.1 µM lay in the range of 20 to 30%, the activation at 0.3 µM was in the range of 30 to 40% and the activation at 1 µM lay within 30 to 40%.

For the compound `c1ccc(-c2ccc(CN3CCSCC3)cc2)cc1` [Compound 7], in assay [1], the activation at 0.03 µM is no more than 20%, the activation at 0.1 µM is 30 to 40%, the activation at 0.3 µM lay in the range of 20 to 30% and the activation at 1 µM was in the range of 30 to 40%.

Take `OC1CCCN(Cc2ccc(-c3ccccc3)cc2)C1` (stereo not drawn) [Compound 8]: in assay [1], the activation at 0.03 µM is 20 to 30%, the activation at 0.1 µM was 20 to 30%, the activation at 0.3 µM is 30 to 40% and the activation at 1 µM was 30 to 40%.

Take `OCC1CCCN(Cc2ccc(-c3ccccc3)cc2)C1` (stereo not drawn) [Compound 9]: in assay [1], the activation at 0.03 µM lay within 20 to 30%, the activation at 0.1 µM lay within 20 to 30%, the activation at 0.3 µM fell in the range of 30 to 40% and the activation at 1 µM fell in the range of 30 to 40%.

`CN(C(=O)c1ccc(-c2ccccc2)cc1)[C@@H]1Cc2ccc(CN3CCCCC3CO)cc2C1` (stereo partly drawn) [Compound 10]: in assay [1], the activation at 0.03 µM lay within 20 to 30%, the activation at 0.1 µM was in the range of 30 to 40%, the activation at 0.3 µM was greater than 40% and the activation at 1 µM is greater than 40%. Also, in assay [1], the “enhancement of oligodendrocyte formation (in words)” value is recorded as “strongly promoted oligodendrocyte formation”. The “14-dehydrozymostenol accumulation in OPCs (indicative of TM7SF2 inhibition)” value in assay [2] (1 μM) is reported as “accumulated 14-dehydrozymostenol”.

Take `OCC1CCCCN1Cc1ccc(Cl)c(Cl)c1` (stereo not drawn) [Compound 11]: in assay [1], the activation at 0.03 µM lay within 20 to 30%, the activation at 0.1 µM is 30 to 40%, the activation at 0.3 µM is greater than 40% and the activation at 1 µM is greater than 40%. For the same compound, in assay [1], the “enhancement of oligodendrocyte formation (in words)” value is recorded as “strongly promoted oligodendrocyte formation”.

On to `OCCN1CCN(Cc2ccc(-c3ccccc3)cc2)CC1` [Compound 12], for which, in assay [1], the activation at 0.03 µM is no more than 20%, the activation at 0.1 µM fell in the range of 20 to 30%, the activation at 0.3 µM is 30 to 40% and the activation at 1 µM is greater than 40%.

Take `NC(=O)C1CCN(Cc2ccc(-c3ccccc3)cc2)CC1` [Compound 13]: in assay [1], the activation at 0.03 µM is 20 to 30%, the activation at 0.1 µM was in the range of 20 to 30%, the activation at 0.3 µM is 30 to 40% and the activation at 1 µM is greater than 40%.

Consider `CSc1ccc(CN2CCCCC2CO)cc1` (stereo not drawn) [Compound 14], for which, in assay [1], the activation at 0.03 µM lay within 20 to 30%, the activation at 0.1 µM lay in the range of 30 to 40%, the activation at 0.3 µM lay in the range of 30 to 40% and the activation at 1 µM lay in the range of 30 to 40%.

With `Clc1ccc(CN2CCCCCC2)cc1Cl` [Compound 15], in assay [1], the activation at 0.03 µM is no more than 20%, the activation at 0.1 µM lay in the range of 20 to 30%, the activation at 0.3 µM fell in the range of 30 to 40% and the activation at 1 µM lay within 30 to 40%.

As to `OC1CCN(Cc2ccc(-c3ccccc3)cc2)CC1` [Compound 16], in assay [1], the activation at 0.03 µM fell in the range of 20 to 30%, the activation at 0.1 µM was 20 to 30%, the activation at 0.3 µM was in the range of 20 to 30% and the activation at 1 µM lay in the range of 30 to 40%.

Take `Clc1ccc(CN2CCCCCCC2)cc1Cl` [Compound 17]: in assay [1], the activation at 0.03 µM is no more than 20%, the activation at 0.1 µM is no more than 20%, the activation at 0.3 µM is no more than 20% and the activation at 1 µM is no more than 20%.

`c1ccc(-c2ccc(CNCCc3ccc(CN4CCCCC4)cc3)cc2)cc1` [Compound 18]: in assay [1], the activation at 0.03 µM lay in the range of 20 to 30%, the activation at 0.1 µM is 20 to 30%, the activation at 0.3 µM fell in the range of 20 to 30% and the activation at 1 µM lay within 30 to 40%.

As to `CC(C)C(=O)NC(Cc1ccc(OCc2ccccc2)cc1)C(=O)NCCCN(C)c1ccccc1` (stereo not drawn) [Compound 19], in assay [1], the activation at 0.03 µM lay within 20 to 30%, the activation at 0.1 µM lay in the range of 20 to 30%, the activation at 0.3 µM fell in the range of 30 to 40% and the activation at 1 µM fell in the range of 30 to 40%. Besides, in assay [1] (wide concentration range), the “EC50 for enhancing oligodendrocyte formation” value was “mid-nanomolar range”. Besides, in assay [2] (10 μM screening dose), the “cholesterol biosynthesis in OPCs” value is “inhibition of cholesterol biosynthesis”. Besides, the “lanosterol accumulation in OPCs (indicative of CYP51 inhibition)” value in assay [2] (10 μM) is reported as “accumulation of the 8,9-unsaturated sterol lanosterol”.
